This is an account of results in ChEMBL document CHEMBL5257035, “Nucleoside Derived Antibiotics to Fight Microbial Drug Resistance: New Utilities for an Established Class of Drugs?” (J Med Chem, 2016).

In test [1] the test system is Mycobacterium tuberculosis. As to the kind of experiment: Antimycobacterial activity against Mycobacterium tuberculosis K4 assessed as reduction in bacterial activity. Format: functional.
For a further test, the target named is Methionine--tRNA ligase (Escherichia coli K-12, UniProt P00959). As to the kind of experiment: Inhibition of Escherichia coli K12 methionyl tRNA synthetase.
Sequence of Methionine--tRNA ligase (P00959 whole entry): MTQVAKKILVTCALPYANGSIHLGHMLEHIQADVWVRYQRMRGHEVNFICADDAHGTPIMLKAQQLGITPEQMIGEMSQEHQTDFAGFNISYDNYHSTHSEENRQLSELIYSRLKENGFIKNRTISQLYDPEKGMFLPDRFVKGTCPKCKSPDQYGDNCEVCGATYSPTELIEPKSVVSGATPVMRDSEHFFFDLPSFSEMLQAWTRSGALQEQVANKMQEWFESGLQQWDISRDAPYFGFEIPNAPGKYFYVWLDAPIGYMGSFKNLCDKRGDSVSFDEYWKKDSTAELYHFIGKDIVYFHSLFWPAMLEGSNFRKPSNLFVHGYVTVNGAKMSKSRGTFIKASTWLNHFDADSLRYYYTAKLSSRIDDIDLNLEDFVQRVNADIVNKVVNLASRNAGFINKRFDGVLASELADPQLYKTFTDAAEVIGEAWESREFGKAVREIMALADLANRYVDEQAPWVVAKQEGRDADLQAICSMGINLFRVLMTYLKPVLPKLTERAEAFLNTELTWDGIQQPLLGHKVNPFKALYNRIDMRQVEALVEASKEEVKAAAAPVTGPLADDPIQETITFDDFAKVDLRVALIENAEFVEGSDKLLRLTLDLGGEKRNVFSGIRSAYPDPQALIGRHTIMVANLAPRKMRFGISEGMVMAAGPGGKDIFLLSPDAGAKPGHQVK
Test [2] deals with Mycobacterium tuberculosis. Put plainly: Antimycobacterial activity against Mycobacterium tuberculosis H37Rv assessed as reduction in bacterial growth. Format: functional.
Test [3] has as its system Pseudomonas aeruginosa. Put plainly: Antibacterial activity against Pseudomonas aeruginosa ATCC 27853 assessed as reduction in microbial growth by broth microdilution method. The test is classed as functional.
Test [4] addresses Phospho-N-acetylmuramoyl-pentapeptide-transferase (Bacillus subtilis (strain 168)) (UniProt Q03521). Put plainly: Inhibition of Bacillus subtilis MraY at 2.3 uM relative to control.
Test [5] deals with Pseudomonas aeruginosa. As to the kind of experiment: Antimicrobial activity against Pseudomonas aeruginosa ATCC 15692 assessed as microbial inhibition. Format: functional, organism-based.
In test [6] the test system is Enterococcus faecalis. Put plainly: Antimicrobial activity against Enterococcus faecalis ATCC 29212 assessed as microbial growth inhibition. The test is classed as functional, organism-based.
Test [7] has as its target Phospho-N-acetylmuramoyl-pentapeptide-transferase (Bacillus subtilis (strain 168)) (UniProt Q03521). Put plainly: Inhibition of Bacillus subtilis MraY at 11.4 uM relative to control.
Test [8] deals with Streptococcus pyogenes. As to the kind of experiment: Antimicrobial activity against Streptococcus pyogenes ATCC 12344 assessed as reduction in microbial growth by broth microdilution method. Format: functional.
Test [9] relates to Enterococcus faecium. Put plainly: Antimicrobial activity against Enterococcus faecium ATCC 19434 assessed as reduction in microbial growth by broth microdilution method. Format: functional.
The subject of test [10] is Staphylococcus aureus. Put plainly: Antimicrobial activity against methicillin-resistant Staphylococcus aureus 10925 assessed as reduction in microbial growth by broth microdilution method. Format: functional.
In test [11] the test system is Pseudomonas aeruginosa. As to the kind of experiment: Antibacterial activity against Pseudomonas aeruginosa assessed as inhibition of bacterial growth incubated for 24 hrs by broth microdilution method. Format: functional.
The nature of test [12]: Inhibition of Escherichia coli RNA polymerase.
The subject of test [13] is Mycobacterium tuberculosis. As to the kind of experiment: Antibacterial activity against Mycobacterium tuberculosis ATCC 27294 assessed as reduction in bacterial growth by LORA method. Format: functional.
Test [14] in a line: Inhibition of Bacterial MraY. More on the design: species or system Bacteria.
Test [15] deals with Streptococcus pneumoniae. Put plainly: Antibacterial activity against Streptococcus pneumoniae B1 assessed as bacterial growth inhibition. Format: functional.
The test system of test [16] is Mycolicibacterium smegmatis. Put plainly: Antimycobacterial activity against Mycobacterium smegmatis assessed as microbial growth inhibition. The test is classed as functional.
Test [17] has as its system Mycolicibacterium smegmatis. As to the kind of experiment: Antibacterial activity against Mycobacterium smegmatis ATCC 607 assessed as bacterial growth inhibition. The test is classed as functional.
The target in test [18] is Phospho-N-acetylmuramoyl-pentapeptide-transferase (Staphylococcus aureus, UniProt P0C1R8). As to the kind of experiment: Inhibition of Staphylococcus aureus MraY.
Sequence of Phospho-N-acetylmuramoyl-pentapeptide-transferase (P0C1R8 whole entry): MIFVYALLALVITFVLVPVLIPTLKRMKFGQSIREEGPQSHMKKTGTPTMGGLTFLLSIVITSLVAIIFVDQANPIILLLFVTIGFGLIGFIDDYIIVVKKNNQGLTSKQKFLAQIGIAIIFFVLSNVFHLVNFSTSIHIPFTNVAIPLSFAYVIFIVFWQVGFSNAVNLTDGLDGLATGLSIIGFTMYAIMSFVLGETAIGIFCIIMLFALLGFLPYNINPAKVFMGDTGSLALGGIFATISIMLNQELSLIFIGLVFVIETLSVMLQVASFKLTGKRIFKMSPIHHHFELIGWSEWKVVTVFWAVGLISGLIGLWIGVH
Test [19] concerns Enterococcus faecium. As to the kind of experiment: Antibacterial activity against Enterococcus faecium assessed as bacterial growth inhibition incubated for 24 hrs by micro-broth dilution method. The test is classed as functional.
Another test concerns Moraxella catarrhalis. Put plainly: Antibacterial activity against Moraxella catarrhalis assessed as bacterial growth inhibition incubated for 24 hrs by micro-broth dilution method. Format: functional.
The test system of test [20] is Streptococcus pneumoniae. As to the kind of experiment: Antibacterial activity against Streptococcus pneumoniae B1 assessed as bacterial growth inhibition incubated for 24 hrs by micro-broth dilution method. Format: functional.
Test [21] has as its system Enterococcus faecalis. As to the kind of experiment: Antibacterial activity against Enterococcus faecalis assessed as bacterial growth inhibition incubated for 24 hrs by micro-broth dilution method. Format: functional.
In the next test the test system is Haemophilus influenzae. As to the kind of experiment: Antibacterial activity against Haemophilus influenzae assessed as bacterial growth inhibition incubated for 24 hrs by micro-broth dilution method. The test is classed as functional.
The subject of test [22] is Staphylococcus aureus. As to the kind of experiment: Antibacterial activity against Staphylococcus aureus ATCC 25923 assessed as bacterial growth inhibition measured after 18 hrs by CLSI protocol based two-fold serial microdilution method. Format: functional.
Test [23] deals with Streptococcus pyogenes. As to the kind of experiment: Antibacterial activity against Streptococcus pyogenes assessed as bacterial growth inhibition incubated for 24 hrs by micro-broth dilution method. Format: functional.
The next test concerns Klebsiella pneumoniae. As to the kind of experiment: Antibacterial activity against Klebsiella pneumoniae assessed as bacterial growth inhibition incubated for 24 hrs by micro-broth dilution method. Format: functional.
Another test deals with Bacillus subtilis. As to the kind of experiment: Antibacterial activity against Bacillus subtilis assessed as bacterial growth inhibition incubated for 24 hrs by micro-broth dilution method. Format: functional.
The test system of test [24] is Staphylococcus saprophyticus. As to the kind of experiment: Antibacterial activity against Staphylococcus saprophyticus ATCC 15305 assessed as bacterial growth inhibition after 20 hrs by CLSI based-broth microdilution method. Format: functional.
Test [25] deals with Staphylococcus epidermidis. As to the kind of experiment: Antibacterial activity against Staphylococcus epidermidis ATCC 12228 assessed as microbial growth inhibition incubated for 24 hrs. The test is classed as functional.
For test [26], the system named is Pseudomonas aeruginosa. As to the kind of experiment: Antibacterial activity against Pseudomonas aeruginosa assessed as bacterial growth inhibition. Format: functional.
In test [27] the test system is Pseudomonas aeruginosa. As to the kind of experiment: Antibacterial activity against beta-lactam resistant Pseudomonas aeruginosa assessed as bacterial growth inhibition. The test is classed as functional.

In brackets after ≈: the same amount, converted by molar mass.

Sequence of Phospho-N-acetylmuramoyl-pentapeptide-transferase (Bacillus subtilis (strain 168)) (Q03521 whole entry): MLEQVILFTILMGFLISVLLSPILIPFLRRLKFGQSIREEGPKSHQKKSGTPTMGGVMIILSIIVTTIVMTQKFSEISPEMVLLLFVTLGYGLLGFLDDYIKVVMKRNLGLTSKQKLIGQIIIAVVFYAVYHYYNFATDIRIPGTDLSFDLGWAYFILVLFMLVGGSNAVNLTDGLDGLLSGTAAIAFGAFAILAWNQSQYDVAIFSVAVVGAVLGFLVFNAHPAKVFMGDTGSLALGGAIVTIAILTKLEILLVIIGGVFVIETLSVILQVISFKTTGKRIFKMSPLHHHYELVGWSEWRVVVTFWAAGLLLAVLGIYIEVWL

On to `CN1C[C@H](O)[C@@H](C(=O)O)N(C)C(=O)[C@@H]1[C@H](O[C@@H]1O[C@H](CN)[C@@H](O)[C@H]1O)[C@H]1O[C@@H](n2ccc(=O)[nH]c2=O)[C@H](O)[C@@H]1O` [CAPRAZOL], for which the MIC in [1] is 3.13 µg/mL (≈ 5.44 µM).
The molecule `CCC(C)C(N)C(=O)NS(=O)(=O)OC[C@H]1O[C@@H](n2cnc3c(N)nc(I)nc32)[C@H](O)[C@@H]1O` (some centres not stated) showed an IC50 against Methionine--tRNA ligase of 14 nM.
As for `CN(C[C@H](NC(=O)[C@H](CC[S+](C)[O-])NC(=O)N[C@@H](Cc1c[nH]c2ccccc12)C(=O)O)C(=O)N/C=C1/C[C@@H](O)[C@H](n2ccc(=O)[nH]c2=O)O1)C(=O)[C@@H](N)Cc1cccc(O)c1` (some centres not stated), the MIC in test [2] amounted to 8 µg/mL (≈ 9.24 µM); in the test with Pseudomonas aeruginosa [3], 8 µg/mL.
For the molecule `C[C@H](N)C(=O)N(C)CCOC[C@H]1O[C@@H](n2ccc(=O)[nH]c2=O)[C@H](O)[C@@H]1O`, the inhibition in test [4] was found to be 97%.
`CCCC(C)CC(C)CC(C)/C=C(C)/C=C/C(O)C(C)C(=O)OC1C(O)CN2CC1NC[C@H]1O[C@@H](OC([C@H]3O[C@@H](n4ccc(=O)[nH]c4=O)[C@H](O)[C@@H]3OS(=O)(=O)O)C2C(=O)O)[C@H](O)[C@@H]1O` (some centres not stated): the IC50 in the test with Pseudomonas aeruginosa [5] worked out at 0.065 µg/mL (≈ 0.0697 µM); in the test on Enterococcus faecalis [6], 0.012 µg/mL (≈ 0.0129 µM).
In [7], `NC[C@H]1O[C@@H](OC[C@H]2O[C@@H](n3ccc(=O)[nH]c3=O)[C@H](OS(=O)(=O)O)C2(F)F)[C@H](O)[C@@H]1O` returned an inhibition of 29%.
In the case of `CCCCCCCCCCCCC[C@@H](CC(=O)O[C@H]1CN(C)[C@@H]([C@H](O[C@H]2O[C@@H](CN)[C@H](O)[C@@H]2O)[C@H]2O[C@@H](n3ccc(=O)[nH]c3=O)[C@H](OS(=O)(=O)O)[C@@H]2O)C(=O)N(C)[C@@H]1C(=O)O)OC(=O)C[C@H](C)CC(=O)O[C@@H]1O[C@@H](C)[C@H](OC)[C@@H](OC)[C@H]1OC`, the MIC in the test with Streptococcus pyogenes [8], with Enterococcus faecium [9] and in the test with Staphylococcus aureus [10] was 4 µg/mL throughout.
For `C[C@H](NC(=O)N[C@@H](Cc1cccc(Cl)c1)C(=O)O)C(=O)N[C@H](C(=O)N/C=C1/C[C@@H](O)[C@H](n2ccc(=O)[nH]c2=O)O1)[C@H](C)NC(=O)[C@@H](N)Cc1ccc(O)cc1`, the MIC in the test on Pseudomonas aeruginosa [11] turned out to be 64 µg/mL (≈ 81.5 µM).
In test [12], `CO[C@H]1[C@@H](O)[C@H](n2ccc(=O)[nH]c2=O)O[C@@H]1[C@@H](O[C@@H]1OC(C(=O)N[C@H]2CCCCNC2=O)=C[C@@H](O)[C@H]1O)C(N)=O` gave a half-maximal inhibitory concentration (IC50) of 100 nM. Further, the MIC in test [13] is 100 µg/mL (≈ 176 µM); with Streptococcus pneumoniae [15], 12.5 µg/mL (≈ 21.9 µM); in [16], 3 µg/mL (≈ 5.27 µM). Also, the Ki in test [14] is 0.01 µg/mL (≈ 0.0176 µM).
Consider `CO[C@H]1[C@@H](O)[C@H](n2ccc(=O)[nH]c2=O)O[C@@H]1[C@@H](O[C@@H]1OC(C(=O)N[C@H]2CCC[C@@H](C)NC2=O)=C[C@@H](O)[C@H]1O)C(N)=O`, for which the MIC in test [17] turned out to be 6.25 µg/mL (≈ 10.7 µM). The same molecule had an IC50 in [18] of 17 nM.
In the case of `CCC(C)C(N)C(=O)NS(=O)(=O)OC[C@H]1O[C@@H](CCn2nnc(-c3ccc(Oc4ccccc4)cc3)n2)[C@H](O)[C@@H]1O` (some centres not stated), the MIC in the test on Enterococcus faecium [19], with Moraxella catarrhalis, in the test with Streptococcus pneumoniae [20], in the test with Enterococcus faecalis [21], in the test on Haemophilus influenzae and with Staphylococcus aureus [22] was 2 µg/mL (≈ 3.39 µM) throughout. The MIC (with Streptococcus pyogenes [23]; in the test with Klebsiella pneumoniae; in the test with Bacillus subtilis; in [24]; in test [25]) was 2 µg/mL (≈ 3.39 µM) throughout.
Consider `CSCC[C@H](NC(=O)NC(Cc1cccc(O)c1)C(=O)O)C(=O)NC(CN(C)C(=O)[C@@H](N)C(Cc1cccc(O)c1)NCC(=O)O)C(=O)N/C=C1/C[C@@H](O)[C@H](n2ccc(=O)[nH]c2=O)O1` (some centres not stated), for which the values for the MIC in the test with Pseudomonas aeruginosa [26] and in the test on Pseudomonas aeruginosa [27] were 1.5 µg/mL (≈ 1.64 µM) and 0.1 µg/mL (≈ 0.109 µM), respectively.
